The structures appear in SMILES notation. pIC50: −log10 of the molar value. Some results are limits rather than exact numbers.

The source of these data is ChEMBL document CHEMBL4342433, “Synthesis and anti-CVB3 activity of 4-amino acid derivative substituted pyrimidine nucleoside analogues” (Bioorg Med Chem Lett, 2020).

Data set [1] is described as follows: (§1) Cytotoxicity in African green monkey Vero cells assessed as reduction in cell viability by MTT assay. Format: cell-based. The note with it: chlorocebus sabaeus, Vero cells; read-out: TC50 (the source's name). A general note: Tetrazolium assays rely on reduction of a dye to a coloured formazan, in cell work by metabolically active cells.
The test system of data set [2] is Coxsackievirus. As to the kind of experiment: Antiviral activity against CVB3 infected in African green monkey Vero cells by MTT assay. Format: functional, organism-based, B3.
Data set [3] in a line: Therapeutic Index, ratio of TC50 for African green monkey Vero cells to IC50 for CVB3 infected in African green monkey Vero cells. Format: toxicity.
The subject of the next data set is Vero. Described as §1. Format: cell-based. Particulars: chlorocebus sabaeus, vero; read-out: TC50 (the source's name).
The subject of data set [4] is Coxsackievirus. As to the kind of experiment: Antiviral activity against CVB3 infected in African green monkey Vero cells assessed as reduction in degree of lesion incubated for 5 days by microscopic method. Format: functional, organism-based. Particulars: B3.

On to `CNC(=O)CC[C@H](Nc1ccn([C@@H]2O[C@@](CO)(N=[N+]=[N-])[C@@H](O)[C@@H]2F)c(=O)n1)C(=O)NC`, for which the CC50 in data set [1] is 126 µM. Besides, in the data set with Coxsackievirus [2] (Coxsackievirus, B3, Vero), the pIC50 – broadly, the negative decadic logarithm of the IC50, by convention in mol/L – is less than 3.00.

For the molecule `COC(=O)CC[C@H](Nc1ccn([C@@H]2O[C@@](CO)(N=[N+]=[N-])[C@@H](O)[C@@H]2F)c(=O)n1)C(=O)OC`, in data set [1], the CC50 is 257 µM. For the same molecule, the negative-log IC50 (pIC50) in the data set with Coxsackievirus [2] (Coxsackievirus, B3, Vero) is 3.00.

Take `NC(=O)c1ncn([C@@H]2O[C@H](CO)[C@@H](O)[C@H]2O)n1` [RIBAVIRIN]: in data set [1], the CC50 is 31.2 µM. Moreover, the pIC50 in the data set with Coxsackievirus [2] (Coxsackievirus, B3, Vero) is 3.05. In addition, the selectivity ratio in data set [3] (Vero cells, read-out: TI) turned out to be 28.3.

As to `[N-]=[N+]=N[C@]1(CO)O[C@@H](n2ccc(N[C@@H](CCC(=O)O)C(=O)O)nc2=O)[C@@H](F)[C@@H]1O`, the CC50 in the data set with Vero came to 30.7 µM. For the same molecule, the pIC50 in the data set on Coxsackievirus [2] (Coxsackievirus, B3, Vero) was 3.31.

With `[K+].[K+].[N-]=[N+]=N[C@]1(CO)O[C@@H](n2ccc(N[C@@H](CCC(=O)[O-])C(=O)[O-])nc2=O)[C@@H](F)[C@@H]1O`, the CC50 in the data set on Vero stood at 13.5 µM. Also, the pIC50 in the data set on Coxsackievirus [2] (vero) is 3.55. Besides, the TI in data set [3] (vero) was 20.8.

Take `[N-]=[N+]=N[C@]1(CO)O[C@@H](n2ccc(N[C@@H](CCC(N)=O)C(N)=O)nc2=O)[C@@H](F)[C@@H]1O`: the CC50 in data set [1] stood at 160 µM. For the same molecule, the pIC50 in the data set with Coxsackievirus [2] (Coxsackievirus, B3, Vero) was less than 3.00.

For `COC(=O)[C@H](CCC(=O)O)Nc1ccn([C@@H]2O[C@@](CO)(N=[N+]=[N-])[C@@H](O)[C@@H]2F)c(=O)n1`, the CC50 in data set [1] was determined as 9.3 µM. The same molecule had a pIC50 in the data set on Coxsackievirus [2] (Coxsackievirus, B3, Vero) of 3.06. The Activity result in the data set on Coxsackievirus [4] was “Dose-dependent effect”.

With `CCNC(=O)CC[C@H](Nc1ccn([C@@H]2O[C@@](CO)(N=[N+]=[N-])[C@@H](O)[C@@H]2F)c(=O)n1)C(=O)NCC`, in data set [1], the CC50 worked out at 150 µM. In the data set with Coxsackievirus [2] (Coxsackievirus, B3, Vero), the pIC50 is less than 3.00.

Consider `COC(=O)CC[C@H](Nc1ccn([C@@H]2O[C@@](CO)(N=[N+]=[N-])[C@@H](O)[C@@H]2F)c(=O)n1)C(=O)O`, for which the CC50 in data set [1] was 21.5 µM. Also, the negative-log IC50 (pIC50) with Coxsackievirus [2] (Coxsackievirus, B3, Vero) is 3.19.
